This is an account of results in US5659048A, “Chiral [[(2-bromoethyl)-amino]methyl]-2-nitro-1H-imidazol-1-ethanol and related compounds” (priority 1995, dated 1997).

The structures appear in SMILES notation.

Series [1] concerns KHT fibrosarcoma. Kind of series: Radiosensitizing efficacy in mice: excision assay, clonogenic survival of KHT fibrosarcomas. Type of series: in vivo, B6 C3 F1 mice. As to conditions: 250 mg/kg IP, 30 min before 10 Gray whole body irradiation. How it is done: Clonogenic survival of KHT fibrosarcomas was determined in assays employing B6 C3 F1 mice. Tumors were implanted subcutaneously by trocar. Nine days postimplantation, when tumors ranged from 200 to 400 mg in size, mice were treated IP with a range of drug doses including the maximum tolerated dose of the test agent. Thirty minutes later mice received whole body irradiation at a dose of 10 Gray, delivered at a rate of 2 Gray/minute with a 320 kV x-ray machine. Twenty-four hours after treatment, animals were sacrificed, and tumors were excised. Tumors were enzymatically digested to give single cell suspensions prior to plating for cell survival by clonogenic assay.

Series [2] has as its system SCC7 carcinoma. The series can be described thus: Radiosensitizing efficacy in mice: tumor growth delay, SCC7 carcinoma. Type of series: in vivo, B6 C3 F1 mice. As to conditions: IP at maximum tolerated dose every 12 hours, 30 min before 2.5 Gray, 8 fractions. How it is done:
Tumor growth delay was assessed in B6 C3 F1 mice implanted IM with 5×10^5 SCC7 carcinoma tumor cells. On Days 10 through 13 post tumor implantation, mice were treated every 12 hours with the maximum tolerated dose of test agent (determined from a 10-day multiple treatment schedule). Thirty minutes later, mice were irradiated at the tumor site with a 2.5 Gray dose of x-rays. Upon completion of this 8 fraction protocol, tumor growth was monitored daily.

For series [3], the system named is beagle dogs. Kind of series: Emesis Studies in beagle dogs. In kind it is in vivo. The following applies: dogs, IV; result in words. How it is done: (§1) Beagle dogs (approximately 10 kg body weight) were treated intravenously with a 10-minute infusion of 20 mL of the test compound prepared in sodium lactate buffer, pH 4.0. Dogs were scored over a 6-hour postdosing period for both the number of emetic episodes and the relative volume. Antiemetic therapy consisted of a 5-minute infusion of ondansetron, administered at a dose of 0.3 mg/kg 30 minutes prior to treatment with the nitroimidazole.

Series [4] in a line: Emesis Studies in beagle dogs. In kind it is in vivo. As to conditions: dog, in vivo; IV, 10-minute infusion, 6-hour postdosing scoring; threshold dose at which 50% of animals exhibited emetic response; read-out: Emesis (Dogs) ED50. How it is done:
as §1

Series [5] deals with B6 C3 F1 mice. Kind of series: Mouse Toxicity Studies (14-day lethality, LD10 by probit analysis). Type of series: in vivo. How it is done: B6 C3 F1 mice were treated with varying doses of test agent by either intraperitoneal, intravenous, or oral administration. […] The maximum tolerated dose was established as the dose equal to or less than the LD10 as determined from a probit analysis.

`Br.O=[N+]([O-])c1nccn1C[C@H](O)CNCCBr` [(R), (R)-(+)-α-[[(2-Bromoethyl)amino]methyl]-2-nitro-1H-imidazole-1-ethanol, monohydrobromide]: the “Excision (250 mg/kg), % control” value in series [1] was found to be 11 % control. The “Growth Delay Fold Enhancement” value in series [2] is 2.1 Fold. For the same compound, the “Emesis relative to (S) isomer or racemic mixture” value in series [3] is “significantly less emesis than the (S) isomer or the mixture”. In addition, in series [4], the TD50 at 6 h amounted to 12 mg/kg. Further, the LD10 in series [5] (IP) amounted to 850 mg/kg; in series [5] (IV), 900 mg/kg; in series [5] (PO), 1100 mg/kg.

As to `Br.O=[N+]([O-])c1nccn1C[C@@H](O)CNCCBr` [(S), (S)-(-)-α-[[(2-Bromoethyl)amino]methyl]-2-nitro-1H-imidazole-1-ethanol, monohydrobromide], the “Excision (250 mg/kg), % control” value in series [1] came to 11 % control. In addition, in series [2], the “Growth Delay Fold Enhancement” value is 1.8 Fold. Besides, the TD50 at 6 h in series [4] was 4 mg/kg. The LD10 in series [5] (IP) is 850 mg/kg; in series [5] (IV), 900 mg/kg; in series [5] (PO), 1100 mg/kg.
